Experimental data published in patent publication US6599885B2, “Derivatives of erythromycin, clarithromycin, roxithromycin or azithromycin with antibiotic and mucolytic activity” (Russinsky Limited, priority 1998, dated 2003).
In brackets after ≈: the same amount, converted by molar mass.

tested on: Micrococcus luteus; assay: MIC liquid tube assay (antibiotic activity); format: cell-based; settings: Micrococcus luteus; liquid tube assay in nutrient broth, 37° C., growth observed after 24 and 48 hours; MIC = last concentration where growth inhibited; read-out: MIC
Protocol: Micrococcus luteus from stock was streaked on a nutrient agar plate to confirm colony morpbiology, colour and purity. After 24 hours incubation at 37° C. an isolated colony is picked and inoculated into 10 ml of nutrient broth. This is incubated overnight at 37° C. and is subsequently used as the inoculum. 10 mg of each of the test compounds is weighed and dissolved in 10 ml of […] methanol in sterile 20 ml universal containers. This is then diluted with ringers buffer solution to give a concentration of 1 mg/ml. Quantitation of activity is determined using an MIC ([…]) liquid tube assay. For each test substance the following concentrations are set up: 10 μg/ml, 5 μg/ml, 1 μg/ml, 0.5 μg/ml, 0.1 μg/ml, 0.05 μg/ml and 0.01 μg/ml. Each contained nutrient broth and 0.1 ml of overnight culture of Micrococcus luteus. The tubes were incubated at 37° C. and observed for growth after 24 hours and 48 hours. Growth is assessed by dense turbidity, optical density at 660 nm using a spectrophotometer or clarity. The MIC is the last concentration where growth inhibited.

`CC[C@H]1OC(=O)[C@H](C)[C@@H](O[C@H]2C[C@@](C)(OC)[C@@H](O)[C@H](C)O2)[C@H](C)[C@@H](O[C@@H]2O[C@H](C)C[C@H](N(C)C)[C@H]2O)[C@](C)(OC)C[C@@H](C)C(=O)[C@H](C)[C@@H](O)[C@]1(C)O` [Clarithromycin] and `CCC(=O)O[C@H]1[C@H](O[C@@H]2[C@@H](C)[C@H](O[C@H]3C[C@@](C)(OC)[C@@H](O)[C@H](C)O3)[C@@H](C)C(=O)O[C@H](CC)[C@@](C)(O)[C@H](O)[C@@H](C)C(=O)[C@H](C)C[C@@]2(C)O)O[C@H](C)C[C@@H]1N(C)C` [Erythromycin-propionate, Erythromycin Propionate, reference compound] cannot be ordered by MIC: ≤ 0.01 µg/mL for the first, 0.01 to 0.05 µg/mL (≈ 0.0127 to 0.0633 µM) for the second.

same assay, conditions: liquid tube assay in nutrient broth, 37° C., growth observed after 24 and 48 hours; MIC = last concentration where growth inhibited

With `CC(=O)N[C@@H](CS)C(=O)O.CC[C@H]1OC(=O)[C@H](C)[C@@H](O[C@H]2C[C@@](C)(OC)[C@@H](O)[C@H](C)O2)[C@H](C)[C@@H](O[C@@H]2O[C@H](C)C[C@H](N(C)C)[C@H]2O)[C@](C)(OC)C[C@@H](C)C(=O)[C@H](C)[C@@H](O)[C@]1(C)O` [Clarithromycin-N-acetylcysteinate [1:1], Clarithromycin-N-Acetylcysteinate-[1:1]-Salt] the MIC was “≦0.01 μg/ml”.
For “Erythromycin Propionate-N-Acetylcysteine [1:1.8]-Adduct [Erythromycin-N-acetylcysteinate [1:1.8]]”, the MIC was “≦0.01 μg/ml”.

First: Clarithromycin-N-Acetylcysteinate-[1:4]-Salt [Clarithromycin-N-acetylcysteinate [1:4]]
Second: Erythromycin Propionate-N-Acetylcysteine [1:4]-Adduct [Erythromycin-N-acetylcysteinate [1:4]]
The MIC of the first is lower: 0.01 to 0.05 µg/mL for the first, 0.05 to 0.1 µg/mL for the second.

With “Erythromycin Propionate-N-Acetylcysteine-[1:1]-Salt [Erythromycin-N-acetylcysteinate [1:1]]” the MIC was 0.01 to 0.05 µg/mL.
